# Test results taken from patent US11046693B2, “Pyrido-phenanthroline derivatives, production and use thereof as medicaments” (Christian-Albrechts-Universitat Zu Kiel, priority 2016, dated 2021).
# Structures can show the parent of a compound that is named as a salt.
# What was measured:
# [1] = system: PARP (poly-ADP ribose polymerase) cleavage; assay: PARP assay comparing Example 1 and PZA (FIG. 4); type: cell-based
# Protocol: (§1) In addition, exemplary compound 1 was tested for apoptotic activity. The enzyme PARP (poly-ADP ribose polymerase) can be used to determine the apoptotic status of a cell; the enzyme is cleaved into a 89 kDa fragment when the cell transitions into apoptosis and can therefore serve as a apoptosis marker ([…] S H et al, Cancer Research, 1993; 53:3976-3985). […] Etoposide was chosen as reference compound and tested as well.
# Another PARP assay was performed to obtain a direct comparison of the pro-apoptotic effects of Example 1 (here: P8D 6) and the potent dual topoisomerase I/II inhibitor pyrazoloacridine (PZA) known from literature (FIG. 4).
# [2] = system: malignant melanoma, hepatocellular carcinoma, and mesothelioma; conditions: clinical study, with carboplatin; cited from earlier work
# [3] = system: 60 different human pathogenic tumor cell lines; assay: DTP NCI-60 in vitro human tumor cell line screening (SRB); type: cell-based; conditions: mean growth inhibition of all 60 tumor cell lines, two days exposure
# Protocol: For studying the pharmacological properties, the compounds of Examples 1 to 3 were tested under the “DTP NCI-60 in vitro human tumor cell line screening” of the National Cancer Institute (NCI), Bethesda, Md., United States. They were tested against 60 different human pathogenic tumor cell lines which originated from nine types of cancer (leukemia, non-small cell lung cancer, colon cancer, cancer of the CNS, melanoma, ovarian cancer, renal cancer, prostate cancer, breast cancer). To assess efficacy, the tumor cells were exposed to the compounds over two days, then growth inhibition was determined indirectly by determining the protein biomass with sulforhodamine B (SRB). Untreated cultures were used as reference. The mean-graph midpoint (MG_MIDGGI50) corresponds to a mean response rate of all tested human cell lines for the substance tested.
# [4] = system: pancreatic carcinoma, ovarian carcinoma, and prostate cancer; conditions: phase II study, at least some cases; cited from earlier work
# [5] = Solubility pH 7.4 by HPLC analysis; type: physicochemical; conditions: aqueous buffer; pH 7.4, HPLC analysis
# [6] = logD by HPLC analysis; type: physicochemical; conditions: determined using HPLC analysis
# [7] = Tolerability / MTD study, one-time intravenous application; type: in vivo, female athymic nude mice
# Protocol: The maximum tolerated dose (MTD) was determined as part of an in vivo study of tolerability of P8-D6 in female athymic nude mice.
# A total of 18 female athymic nude mice at ages of 7 weeks (groups 1 and 2), 8 weeks (groups 3 and 4), and 9 weeks (groups 5 and 6) were involved in the in vivo study.
# To determine the tolerability of P8-D6 for a one-time intravenous application into the tail vein, the study animals of groups 2, 4, and 6 (3 animals per group) were given P8-D6 at doses of 1 mg/kg body weight, 5 mg/kg body weight, and 10 mg/kg body weight on study days 0, 7, and 14, respectively. The control animals of groups 1, 3, and 5 (3 animals per group) were administered PBS (phosphate buffered saline) (pH 7.4) at a dose of 10 mL/kg body weight on the same respective days. The study animals were monitored in a period of up to 14 days for clinical signs, changes in behavior, and survival. The body weight was measured three times a week. The first measurement was on the application day. Criteria for early abortion of the study for ethical reasons were weight loss of more than 20% from the baseline weight. A necropsy was performed on study animals that died during the study and on all other study animals at the end of the study phase. Organ samples were taken from six study animals ([…], 1 animal from group 1, 1 animal from group 2, and one animal from group 6).
# [8] = biological target: T1, human topoisomerase I (Homo sapiens, UniProt P11387); assay: Relaxation assay (supercoiled plasmid pUC18); type: biochemical
# T1 sequence (P11387 1-765): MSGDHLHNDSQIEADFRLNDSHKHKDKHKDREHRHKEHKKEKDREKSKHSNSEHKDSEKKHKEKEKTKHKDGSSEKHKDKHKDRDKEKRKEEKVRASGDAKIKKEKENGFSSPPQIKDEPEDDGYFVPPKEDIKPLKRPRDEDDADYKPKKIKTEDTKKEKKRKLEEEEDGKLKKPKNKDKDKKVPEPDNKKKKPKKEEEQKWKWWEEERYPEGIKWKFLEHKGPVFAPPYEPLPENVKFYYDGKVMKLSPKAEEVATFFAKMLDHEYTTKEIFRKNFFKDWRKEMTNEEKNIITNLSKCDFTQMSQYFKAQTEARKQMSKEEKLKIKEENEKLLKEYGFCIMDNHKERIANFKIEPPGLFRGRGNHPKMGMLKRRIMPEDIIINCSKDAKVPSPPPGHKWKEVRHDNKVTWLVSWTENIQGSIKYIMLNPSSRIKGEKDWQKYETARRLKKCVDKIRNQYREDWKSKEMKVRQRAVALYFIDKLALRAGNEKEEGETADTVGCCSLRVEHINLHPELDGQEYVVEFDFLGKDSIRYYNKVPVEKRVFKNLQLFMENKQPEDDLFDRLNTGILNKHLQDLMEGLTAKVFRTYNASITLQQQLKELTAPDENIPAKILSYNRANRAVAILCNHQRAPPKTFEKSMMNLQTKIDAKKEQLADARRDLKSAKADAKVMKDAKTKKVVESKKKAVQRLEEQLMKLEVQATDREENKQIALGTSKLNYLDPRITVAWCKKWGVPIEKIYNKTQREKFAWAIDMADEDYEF
# Source text: A relaxation assay can be used to determine the inhibition of human DNA topoisomerase I by a substance. Topo I is capable of transforming the supercoiled plasmid pUC18 into the relaxed form.
# [9] = biological target: human topoisomerase IIβ (Homo sapiens, UniProt Q02880); assay: Decatenation assay (kDNA); type: biochemical; conditions: all three enzymes tested; read-out: IC50 topoisomerase IIβ
# human topoisomerase IIβ, sequence (Q02880 whole entry): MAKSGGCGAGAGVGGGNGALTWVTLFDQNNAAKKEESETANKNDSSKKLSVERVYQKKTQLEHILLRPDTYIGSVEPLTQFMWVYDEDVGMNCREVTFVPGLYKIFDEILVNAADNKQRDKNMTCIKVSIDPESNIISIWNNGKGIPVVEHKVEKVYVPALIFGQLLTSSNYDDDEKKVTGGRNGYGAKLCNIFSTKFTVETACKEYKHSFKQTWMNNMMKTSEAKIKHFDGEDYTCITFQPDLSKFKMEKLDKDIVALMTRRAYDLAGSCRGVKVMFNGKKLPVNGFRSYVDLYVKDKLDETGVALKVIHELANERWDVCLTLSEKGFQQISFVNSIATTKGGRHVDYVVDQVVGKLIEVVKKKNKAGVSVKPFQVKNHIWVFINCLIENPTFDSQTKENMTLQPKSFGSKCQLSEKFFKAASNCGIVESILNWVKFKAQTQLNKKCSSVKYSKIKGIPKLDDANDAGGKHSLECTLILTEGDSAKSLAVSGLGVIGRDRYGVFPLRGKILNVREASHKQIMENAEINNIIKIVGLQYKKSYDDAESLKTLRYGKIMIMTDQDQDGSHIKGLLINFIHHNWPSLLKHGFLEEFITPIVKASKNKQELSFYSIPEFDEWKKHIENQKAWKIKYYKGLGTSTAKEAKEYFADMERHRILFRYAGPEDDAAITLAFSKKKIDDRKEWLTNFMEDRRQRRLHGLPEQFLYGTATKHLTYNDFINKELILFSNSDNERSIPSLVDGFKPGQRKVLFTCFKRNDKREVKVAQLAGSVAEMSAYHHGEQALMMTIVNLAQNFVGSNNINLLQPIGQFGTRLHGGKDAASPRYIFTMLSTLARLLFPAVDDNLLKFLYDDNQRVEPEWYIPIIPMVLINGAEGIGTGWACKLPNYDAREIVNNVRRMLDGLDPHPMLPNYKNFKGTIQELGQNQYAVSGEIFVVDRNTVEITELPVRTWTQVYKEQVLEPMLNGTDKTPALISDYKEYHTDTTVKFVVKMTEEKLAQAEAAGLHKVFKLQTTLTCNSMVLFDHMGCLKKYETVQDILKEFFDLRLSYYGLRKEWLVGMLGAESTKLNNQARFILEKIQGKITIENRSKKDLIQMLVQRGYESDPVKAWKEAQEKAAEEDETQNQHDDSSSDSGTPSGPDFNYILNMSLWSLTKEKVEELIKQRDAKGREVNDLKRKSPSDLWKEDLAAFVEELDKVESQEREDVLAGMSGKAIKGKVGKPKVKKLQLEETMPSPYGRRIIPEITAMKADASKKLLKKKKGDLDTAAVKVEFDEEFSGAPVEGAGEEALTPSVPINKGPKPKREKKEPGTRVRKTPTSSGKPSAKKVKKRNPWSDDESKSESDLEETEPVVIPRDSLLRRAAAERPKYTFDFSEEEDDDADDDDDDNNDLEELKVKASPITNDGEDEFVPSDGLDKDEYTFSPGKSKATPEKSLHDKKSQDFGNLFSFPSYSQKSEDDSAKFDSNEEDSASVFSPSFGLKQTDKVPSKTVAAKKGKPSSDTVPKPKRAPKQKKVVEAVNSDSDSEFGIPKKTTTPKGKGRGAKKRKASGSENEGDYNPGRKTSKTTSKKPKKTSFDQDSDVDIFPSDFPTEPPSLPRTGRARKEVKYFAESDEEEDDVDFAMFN
# Source text: (§2) A decatenation assay was used, which can be used to determine the inhibition of human topoisomerases II (α/β) by a substance. The protein is capable of decatenating kinetoplastid DNA (kDNA), which is present in the form of interlocked minicircles (so-called catenates), i.e. of cleaving it into individual minicircles.
# [10] = system: HeLa cells; assay: PARP apoptosis assay (HeLa cells); type: cell-based; conditions: after 8 h, FIG. 3
# Protocol: as §1
# [11] = biological target: human topoisomerase IIα (Homo sapiens, UniProt P11388); assay: Decatenation assay (kDNA); type: biochemical; conditions: for inhibition of topo IIα: 10 μM and 100 μM, FIG. 2 lanes 4 and 5
# human topoisomerase IIα, sequence (P11388 whole entry): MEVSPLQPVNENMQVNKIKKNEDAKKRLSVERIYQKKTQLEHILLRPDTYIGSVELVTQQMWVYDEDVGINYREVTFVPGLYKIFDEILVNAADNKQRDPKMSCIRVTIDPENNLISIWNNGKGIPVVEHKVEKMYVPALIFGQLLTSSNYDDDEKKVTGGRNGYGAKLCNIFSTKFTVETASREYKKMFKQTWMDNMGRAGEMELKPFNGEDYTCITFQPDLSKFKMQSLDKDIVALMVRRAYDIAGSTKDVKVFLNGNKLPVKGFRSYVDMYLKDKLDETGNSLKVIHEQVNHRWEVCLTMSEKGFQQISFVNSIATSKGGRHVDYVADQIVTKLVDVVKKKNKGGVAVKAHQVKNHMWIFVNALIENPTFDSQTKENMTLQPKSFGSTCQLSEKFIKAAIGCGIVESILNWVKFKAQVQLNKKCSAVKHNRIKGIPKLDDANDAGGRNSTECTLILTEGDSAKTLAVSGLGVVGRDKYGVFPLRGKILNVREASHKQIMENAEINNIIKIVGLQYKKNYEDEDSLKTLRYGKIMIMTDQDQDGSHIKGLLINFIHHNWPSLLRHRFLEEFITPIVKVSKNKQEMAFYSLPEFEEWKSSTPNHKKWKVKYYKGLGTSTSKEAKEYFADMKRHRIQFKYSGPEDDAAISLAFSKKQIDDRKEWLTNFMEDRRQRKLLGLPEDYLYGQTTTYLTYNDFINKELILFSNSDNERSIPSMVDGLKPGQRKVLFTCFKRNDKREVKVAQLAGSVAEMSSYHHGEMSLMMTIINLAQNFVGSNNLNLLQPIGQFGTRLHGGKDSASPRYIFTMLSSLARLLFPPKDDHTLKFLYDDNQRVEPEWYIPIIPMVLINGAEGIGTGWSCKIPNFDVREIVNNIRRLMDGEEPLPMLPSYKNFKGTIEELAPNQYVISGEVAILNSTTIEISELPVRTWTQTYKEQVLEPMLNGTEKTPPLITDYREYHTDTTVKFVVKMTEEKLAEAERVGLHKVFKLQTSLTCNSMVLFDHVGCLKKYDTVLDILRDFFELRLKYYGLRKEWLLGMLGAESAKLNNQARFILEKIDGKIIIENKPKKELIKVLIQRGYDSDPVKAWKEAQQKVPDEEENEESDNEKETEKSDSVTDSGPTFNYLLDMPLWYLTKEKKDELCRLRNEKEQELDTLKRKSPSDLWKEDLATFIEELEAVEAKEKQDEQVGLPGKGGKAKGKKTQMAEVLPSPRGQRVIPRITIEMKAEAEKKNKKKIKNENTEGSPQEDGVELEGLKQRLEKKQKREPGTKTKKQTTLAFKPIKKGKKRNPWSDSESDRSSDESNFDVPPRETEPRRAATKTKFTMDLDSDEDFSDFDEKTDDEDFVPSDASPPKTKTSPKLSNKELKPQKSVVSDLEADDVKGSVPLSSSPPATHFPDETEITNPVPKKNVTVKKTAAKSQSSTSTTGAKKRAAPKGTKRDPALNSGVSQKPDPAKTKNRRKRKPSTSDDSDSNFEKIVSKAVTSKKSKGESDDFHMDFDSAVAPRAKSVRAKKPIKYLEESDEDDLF
# Source text: as §2
# [12] = clinical phase I; cited from earlier work
# [13] = system: mammary carcinoma, ovarian carcinoma, colon carcinoma, renal cell carcinoma, and non-small cell lung cancer; conditions: literature; cited from earlier work
# [14] = system: cancer in the head and neck, colon carcinoma, renal carcinoma, and non-small cell lung cancer; conditions: literature; cited from earlier work
# [15] = system: colon carcinoma and non-small cell lung cancer; conditions: in-vivo xenograft; cited from earlier work
# [16] = system: malignant melanoma, cervical cancer, and cancer of the parotid gland; conditions: clinical phase I; cited from earlier work
smiles,measurement,setting,value
"COc1ccc2c(c1)-c1nn(CCCN(C)C)c3ccc([N+](=O)[O-])c(c13)N2 [PZA, pyrazoloacridine]",concentration at which effective in PARP assay,[1]; FIG. 4,100 µM
same,clinical outcome,[2],could not be cured but were stabilized over a few months
same,GI50,"[3]; Homo sapiens, 48 h",200 nM
same,clinical outcome,[4],partial remission
"COc1cc(-c2cc3ccncc3c3nc(OCCN(C)C)c4cnccc4c23)cc(OC)c1OC [Example 1, 6-(2-dimethylaminoethoxy)-11-(3,4,5-trimethoxyphenyl)pyrido[3,4-c][1,9]-phenanthroline Hydrochloride]",solubility,[5],0.87 ± 0.03 mM
same,apoptotic effect in PARP assay,"[1]; FIG. 4, direct comparison with PZA",extraordinarily strong apoptotic effect
same,chromatographic logD,[6],3.7
same,tolerability,"[7]; 1 mg/kg body weight, female athymic nude mice",good tolerability
same,loss of body weight and apathy,"[7]; 5 mg/kg body weight, female athymic nude mice",reversible
same,acute lethal side effects,"[7]; 1, 5 and 10 mg/kg body weight",None
same,IC50,"[8]; all three enzymes tested, read-out: IC50 topoisomerase I",< 10 µM
same,inhibition of topoisomerase I activity,"[8]; at 10 μM, FIG. 1",almost complete
same,GI50,"[3]; Homo sapiens, 48 h",49 nM
same,IC50,[9],< 10 µM
same,concentration at which cleaved PARP (89 kDa band) is visible / apoptosis initiated,[10],1 µM
same,inhibition of topo IIα,[11]; Hydrochloride,exemplary inhibition of topo IIα
same,inhibition of topo IIα,"[11]; listed as exemplary compound 1, Hydrochloride",potently inhibit topo IIα
same,IC50,"[11]; all three enzymes tested, read-out: IC50 topoisomerase IIα",< 10 µM
Cc1cnc(NCCCN(C)C)c2c1[nH]c1ccc3cc(O)ccc3c12 [Intoplicin],hepatotoxicity,[12],dose-limiting
same,activity against carcinomas,[13],high activity
same,GI50,[3],530 nM
"COc1cc([C@@H]2c3cc4c(cc3[C@@H](O[C@@H]3O[C@@H]5CO[C@@H](C)O[C@H]5[C@H](O)[C@H]3O)[C@H]3COC(=O)[C@H]23)OCO4)cc(OC)c1O [Etoposide, reference compound]",GI50,"[3]; Homo sapiens, 48 h",990 nM
same,concentration at which cleaved PARP (89 kDa band) is visible / apoptosis initiated,[10],> 100 µM
CCc1c2c(nc3ccc(OC(=O)N4CCC(N5CCCCC5)CC4)cc13)-c1cc3c(c(=O)n1C2)COC(=O)[C@]3(O)CC [Irinotecan],GI50,"[3]; Homo sapiens, 48 h",160 nM
COc1cc([C@@H]2c3cc4c(cc3[C@@H](O[C@@H]3O[C@@H]5CO[C@@H](c6cccs6)O[C@H]5[C@H](O)[C@H]3O)[C@H]3COC(=O)[C@H]23)OCO4)cc(OC)c1O [Teniposide],GI50,"[3]; Homo sapiens, 48 h",390 nM
"CN(C)CCOc1nc2c(c3ccncc13)C(c1cccc(Cl)c1)Cc1ccncc1-2 (centres unmarked) [Example 3, 11-(3-chlorophenyl)-6-(2-dimethylaminoethoxy)-11,12-dihydropyrido[3,4-c]-[1,9]phenanthroline Hydrochloride]",solubility,[5],5.28 ± 0.09 mM
same,chromatographic logD,[6],3.6
same,GI50,"[3]; Homo sapiens, 48 h",447 nM
CN(C)CCNc1nc2cc(O)ccc2c2c1C(=O)c1ccccc1-2 [TAS-103],efficacy in patients,[14],"sufficient to keep patients stable for a period of a few months, but a cure could not be achieved"
COc1cccc2c1ccc1nc3cccc(C(=O)N[C@H](C)CN(C)C)c3nc12 [XR11576],activity in xenograft,[15],high activity
same,clinical outcome,[16],"stabilization, but no remission"
"CC[C@@]1(O)C(=O)OCc2c1cc1n(c2=O)Cc2cc3ccccc3nc2-1 [Camptothecin, reference compound]",GI50,"[3]; Homo sapiens, 48 h",44 nM
"COc1cc(-c2cc3ccncc3c3nc(OCCCN(C)C)c4cnccc4c23)cc(OC)c1OC [Example 2, 6-(3-dimethylaminopropoxy)-11-(3,4,5-trimethoxyphenyl)pyrido[3,4-c][1,9]-phenanthroline]",chromatographic logD,[6],3.6
same,GI50,"[3]; Homo sapiens, 48 h",52 nM
CC[C@@]1(O)C(=O)OCc2c1cc1n(c2=O)Cc2cc3c(CN(C)C)c(O)ccc3nc2-1 [Topotecan],GI50,"[3]; Homo sapiens, 48 h",14 nM
